As usually defined, the half-life is the time needed for the level to fall by half in the phase considered. Read a low half-life as rapid decline. The solubility is the concentration that dissolves in the medium under given conditions. A lower solubility goes with a poorly soluble substance. In general, IC50 refers to the concentration at which inhibition is half-maximal. High values mean weaker potency, low ones greater potency. Broadly, the inhibition is the relative decrease from the control value, in per cent. What is called clearance is a measure of how efficiently the substance is removed, as volume per time. For orientation: bioavailability means dose-corrected exposure relative to a reference, in per cent. Read a high bioavailability as good availability.

The structures appear in SMILES notation. ≈ marks a conversion by molar mass, not a printed value.

From ChEMBL document CHEMBL1909576, “Continued exploration of biphenylsulfonamide scaffold as a platform for aggrecanase-1 inhibition” (Bioorg Med Chem Lett, 2011) come the findings set out here.

The nature of data set [1]: Half life in Sprague-Dawley rat. The format is ADME, organism-based. Particulars: in vivo.
Data set [2] in a line: Solubility of the compound at pH 7.4. In kind it is physicochemical. The note with it: buffer.
Data set [3] has as its target T1, A disintegrin and metalloproteinase with thrombospondin motifs 4 (Homo sapiens, UniProt O75173).
T1 sequence (O75173 whole entry): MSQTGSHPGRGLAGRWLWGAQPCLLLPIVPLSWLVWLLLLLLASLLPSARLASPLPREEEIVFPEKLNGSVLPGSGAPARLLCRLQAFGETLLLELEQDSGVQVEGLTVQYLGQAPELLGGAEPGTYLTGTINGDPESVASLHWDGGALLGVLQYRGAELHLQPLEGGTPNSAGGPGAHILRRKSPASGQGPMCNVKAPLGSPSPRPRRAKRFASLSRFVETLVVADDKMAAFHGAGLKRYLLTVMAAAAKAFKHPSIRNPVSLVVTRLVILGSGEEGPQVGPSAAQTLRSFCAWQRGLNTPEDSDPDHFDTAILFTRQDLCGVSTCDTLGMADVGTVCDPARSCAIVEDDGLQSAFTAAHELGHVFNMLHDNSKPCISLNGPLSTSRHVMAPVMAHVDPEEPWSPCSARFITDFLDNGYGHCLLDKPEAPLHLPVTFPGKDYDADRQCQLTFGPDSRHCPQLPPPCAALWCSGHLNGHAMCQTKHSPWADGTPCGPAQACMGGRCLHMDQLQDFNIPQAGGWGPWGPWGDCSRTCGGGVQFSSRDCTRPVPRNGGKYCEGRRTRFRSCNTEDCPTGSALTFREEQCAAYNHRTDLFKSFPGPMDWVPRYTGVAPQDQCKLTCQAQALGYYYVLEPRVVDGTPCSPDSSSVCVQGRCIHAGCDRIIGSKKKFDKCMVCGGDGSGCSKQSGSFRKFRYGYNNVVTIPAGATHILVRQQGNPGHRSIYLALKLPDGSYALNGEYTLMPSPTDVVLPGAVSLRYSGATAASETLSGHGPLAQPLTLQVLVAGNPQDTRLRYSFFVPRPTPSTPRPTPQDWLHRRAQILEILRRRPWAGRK
Nature of the data set: Inhibition of aggrecanase-1.

Data set [4] is described as follows: Permeability across human Caco2 cells. In kind it is ADME, cell-based. The note with it: Caco-2, read-out: permeability.
The target in a further data set is Collagenase 3 (Homo sapiens, UniProt P45452). Nature of the data set: Inhibition of MMP13.
Data set [5] deals with T2, A disintegrin and metalloproteinase with thrombospondin motifs 4 (Bos taurus) (UniProt Q9TT93).
T2 sequence (whole entry): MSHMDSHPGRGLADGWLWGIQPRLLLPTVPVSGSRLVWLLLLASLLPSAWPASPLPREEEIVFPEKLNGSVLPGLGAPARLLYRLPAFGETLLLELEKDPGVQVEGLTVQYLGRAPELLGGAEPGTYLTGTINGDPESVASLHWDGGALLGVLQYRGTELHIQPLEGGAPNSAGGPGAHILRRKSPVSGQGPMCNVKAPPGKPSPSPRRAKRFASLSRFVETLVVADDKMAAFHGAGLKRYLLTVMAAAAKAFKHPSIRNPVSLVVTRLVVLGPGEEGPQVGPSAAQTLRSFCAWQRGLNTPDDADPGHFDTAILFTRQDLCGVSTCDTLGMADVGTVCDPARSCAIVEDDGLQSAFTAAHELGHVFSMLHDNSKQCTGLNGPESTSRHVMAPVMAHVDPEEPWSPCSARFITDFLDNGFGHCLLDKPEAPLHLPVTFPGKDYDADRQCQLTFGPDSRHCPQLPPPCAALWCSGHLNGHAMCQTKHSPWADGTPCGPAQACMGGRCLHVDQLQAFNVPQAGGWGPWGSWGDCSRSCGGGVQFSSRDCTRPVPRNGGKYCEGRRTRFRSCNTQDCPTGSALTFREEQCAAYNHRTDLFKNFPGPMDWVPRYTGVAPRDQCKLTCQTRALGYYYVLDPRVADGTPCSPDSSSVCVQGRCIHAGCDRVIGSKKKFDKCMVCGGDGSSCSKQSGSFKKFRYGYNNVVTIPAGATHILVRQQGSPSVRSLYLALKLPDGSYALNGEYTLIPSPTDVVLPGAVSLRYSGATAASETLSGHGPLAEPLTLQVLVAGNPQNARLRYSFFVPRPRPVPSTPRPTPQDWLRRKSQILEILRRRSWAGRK
Description: Inhibition of aggrecanase 1 in bovine cartilage explant assessed as inhibition of IL1-stimulated proteoglycan degradation at 10 ug/ml.

Data set [6] deals with T3, A disintegrin and metalloproteinase with thrombospondin motifs 5 (Homo sapiens) (UniProt Q9UNA0).
T3 sequence (whole entry): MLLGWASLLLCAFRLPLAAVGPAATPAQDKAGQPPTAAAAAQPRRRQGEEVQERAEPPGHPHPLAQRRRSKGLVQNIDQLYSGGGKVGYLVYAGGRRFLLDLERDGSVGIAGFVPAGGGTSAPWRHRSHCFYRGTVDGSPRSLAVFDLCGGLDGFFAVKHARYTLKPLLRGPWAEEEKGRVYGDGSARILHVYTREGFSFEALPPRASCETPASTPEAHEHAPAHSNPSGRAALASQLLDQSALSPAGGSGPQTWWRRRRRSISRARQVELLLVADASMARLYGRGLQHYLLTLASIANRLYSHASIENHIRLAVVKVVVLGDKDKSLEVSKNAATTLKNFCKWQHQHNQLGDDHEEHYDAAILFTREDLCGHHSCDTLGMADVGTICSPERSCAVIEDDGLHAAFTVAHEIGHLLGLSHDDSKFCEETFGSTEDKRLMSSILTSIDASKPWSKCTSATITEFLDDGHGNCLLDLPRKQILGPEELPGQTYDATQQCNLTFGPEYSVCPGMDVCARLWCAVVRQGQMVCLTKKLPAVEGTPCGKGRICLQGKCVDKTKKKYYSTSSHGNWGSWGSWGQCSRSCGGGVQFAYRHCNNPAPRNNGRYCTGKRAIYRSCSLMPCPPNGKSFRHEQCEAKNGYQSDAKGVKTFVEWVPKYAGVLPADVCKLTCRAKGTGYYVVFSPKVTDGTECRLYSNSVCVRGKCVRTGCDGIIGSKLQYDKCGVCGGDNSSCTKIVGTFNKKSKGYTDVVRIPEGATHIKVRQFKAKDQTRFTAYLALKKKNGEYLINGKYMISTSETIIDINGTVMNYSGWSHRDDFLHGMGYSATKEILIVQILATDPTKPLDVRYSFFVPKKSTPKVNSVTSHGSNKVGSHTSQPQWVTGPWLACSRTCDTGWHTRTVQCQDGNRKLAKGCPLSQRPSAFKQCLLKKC
Description: Inhibition of aggrecanase-2 at 200 uM.

Data set [7] concerns the target T4, A disintegrin and metalloproteinase with thrombospondin motifs 5 (Homo sapiens, UniProt Q9UNA0).
T4 sequence (Q9UNA0 whole entry): T3 sequence (whole entry)
Description: Inhibition of aggrecanase-2.

The nature of data set [8]: Clearance in Sprague-Dawley rat. The format is ADME, organism-based. The note with it: in vivo.
A short description of data set [9]: Bioavailability in Sprague-Dawley rat. The format is ADME, organism-based. Particulars: in vivo.

The molecule `CC(C)[C@@H](NS(=O)(=O)c1ccc(-c2ccc(OCc3cccc(C#N)c3)cc2)cc1)C(=O)O` showed a half-life in data set [1] of 7 h. This molecule displayed a solubility in data set [2] of 53 µg/mL (≈ 114 µM). Besides, the half-inhibitory concentration (IC50) in data set [3] stood at 800 nM; at Collagenase 3, 0.1 nM. Further, the Papp in data set [4] was found to be 0.8 ×10⁻⁶ cm/s.

For `CC(=O)NCc1ccc(-c2ccc(S(=O)(=O)N[C@@H](C(=O)O)C(C)C)cc2)cc1`, the inhibition in data set [5] amounted to 20%; in [6], 73%. In addition, the half-inhibitory concentration (IC50) was determined as 420 nM in data set [3] and 450 nM against Collagenase 3.

Turning to `Cc1c(COc2ccc(-c3ccc(S(=O)(=O)N[C@@H](C(=O)O)C(C)C)cc3)cc2)oc2ccccc12`, the inhibition in [5] was determined as 89%. For the same molecule, the concentration for half-maximal inhibition (IC50) came to 3700 nM in data set [7] and 4 nM on Collagenase 3.

`CC(C)[C@@H](NS(=O)(=O)c1ccc(-c2ccc(OCc3ccccc3C#N)cc2)cc1)C(=O)O` showed a half-life in data set [1] of 6 h. Moreover, the solubility in data set [2] is more than 100 µg/mL. For the same molecule, the clearance in data set [8] was 1.07 mL/min/kg. In [9], this molecule registered a bioavailability of 23%. The IC50 came to 15000 nM in [3] and 4.6 nM against Collagenase 3.

For `CC(C)[C@@H](NS(=O)(=O)c1ccc(-c2ccc(OCc3cccc(C(F)(F)F)c3)cc2)cc1)C(=O)O`, the inhibition in data set [5] is 87%. Further, the 50% inhibitory concentration (IC50) in [3] came to 310 nM; in [7], 2380 nM; at Collagenase 3, 3.5 nM.
